The text below walks through data of patent US10668027B1, “Method of treating Acanthamoeba infection using allopurinol” (University of South Florida, priority 2014, dated 2020).

Where two headings read alike, the source gives them in different places.

For test [1], the target named is T1, N. fowleri Nfa-1 hemerythrin (Naegleria fowleri, UniProt Q9NH76).
T1 construct: made in house; host or cells: E. coli
The test is described as follows: biochemical. The text has this: (§1) The N. fowleri Nfa-1 gene (360 bp, GenBank Accession No. AF230370) was amplified by PCR from genomic N. fowleri DNA using PCR primers that included the Nde1 and Sap1 restriction enzyme sites for subsequent cloning into the Nde1 and Sap1 sites of the bacterial expression vector pTwin1 (forward primer with Nde1 site underlined; ATG start codon is indicated in bold: SEQ ID NO: 1 5′-[…]-3′, reverse primer with Sap1 site underlined: SEQ ID NO: 2 5′-[…]-3′), which contained a thiol-inducible intein protease fused to a chitin-binding domain. Recombinant Nfa-1 protein was produced in E. coli and purified by chitin-agarose chromatography followed by cleavage and elution of the purified Nfa-1 protein by 40 mM dithiothreitol (DTT) and subsequent size-exclusion chromatography purification.
(§2) Enzymatic oxidase activity, kinetics and pharmacological drug inhibition assays of recombinant N. fowleri Nfa-1 hemerythrin were determined in vitro using NADH or NADPH as the substrate and electron donor and ferricyanide as electron acceptor. Various drugs and inhibitors specific for xanthine oxidase-like enzymes, NAD(P)H oxidases, or NADH peroxidase were included in the pharmacological inhibition assays.

The test system of test [2] is Acanthamoeba castellani (ATCC strain 50370). Briefly: microbe, parasite or virus in culture. Conditions: Acanthamoeba castellanii, ATCC50370, CHO, 19 h, read-out: IC50, protection against A. castellani cytotoxicity.
Test [3] relates to Naegleria fowleri strain Nf69 (ATCC 30215). The test is described as follows: LDH cytotoxicity assay of N. fowleri amoebae co-cultured with CHO cells. Conditions: ATCC30215, CHO, 13 h, read-out: IC50, protection from N. fowleri cytotoxicity. As for the experimental part: Naegleria fowleri strain Nf69 (ATCC 30215) was cultivated at about 33° C. in modified Nelson's medium (about 1 mM Na2HPO4, about 1 mM KH2PO4, about 2.05 mM NaCl, about 16.2 μM MgSO4, about 27.2 μM CaCl2), about 0.17 g/L DIFCO Liver infusion broth, about 9.4 mM glucose) supplemented with about 10% heat-inactivated fetal bovine serum. For cytotoxicity assays, Chinese hamster ovary (CHO) cells were grown at about 37° C. in DMEM medium supplemented with about 10% fetal bovine serum until cultures reached about 70-80% confluency. Subsequently cultures were infected with N. fowleri cells at a ratio of 1 N. fowleri amoeba per 5-10 CHO cells and co-cultivated overnight for about 13 hours at about 37° C. The cytotoxicity effect of N. fowleri amoebae on CHO cells was measured by an LDH-based cytotoxicity assay that quantifies the release of lactate dehydrogenase (LDH) from dead cells at 490 nm wavelength absorbance for calculation of amoeba-induced cytotoxicity to the mammalian host cells.
Cytotoxicity of Naegleria fowleri amoebae was measured with CHO cells co-cultured with N. fowleri for about 13 hours at about 37° C. using the LDH cytotoxicity assay (infection ratio of 1 amoeba cell per 5-10 CHO cells) as described above.

Test [4] deals with T1, N. fowleri Nfa-1 hemerythrin. Briefly: Initial-rate enzyme kinetics of Nfa-1 hemerythrin using NADH or NADPH as substrates. The test is classed as biochemical. Conditions: substrate 10-200 μM, ferricyanide 200 μM, 40 sec at 23° C., Michaelis-Menten analysis; for Km: read-out: apparent Km.
Excerpt: as §1, §2
Enzyme kinetics were determined using NADH or NADPH at 10-200 μM concentration as electron donor and ferricyanide (200 μM) as electron acceptor for initial-rate enzyme kinetics of 40 sec at 23° C.

[5] abbreviates: recombinant N. fowleri Nfa-1 oxidase in vitro, read-out: Ki, inhibition of Nfa-1 enzyme activity.

T1 sequence (Q9NH76 whole entry): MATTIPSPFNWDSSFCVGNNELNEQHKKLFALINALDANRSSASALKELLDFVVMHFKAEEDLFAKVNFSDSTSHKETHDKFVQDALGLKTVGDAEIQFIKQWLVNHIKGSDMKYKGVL

Consider `O=[N+]([O-])[O-].[Ag+]` [AgNO3], for which the Ki in test [1] (setting [5]) amounted to 345 µM. In the case of `Oc1ncnc2[nH]ncc12` [Allopurinol], the Ki in test [1] (setting [5]) was 134 µM. Besides, the IC50 worked out at 620 µM in test [2] and 48 µM in test [3]. In the same order, the values of `COc1cc(C(C)=O)ccc1O` [Apocynin] are 17 µM, 174 µM and 15 µM. In test [1], `c1ccc2c(c1)[I+]c1ccccc1-2` [DPI, diphenyleneiodonium chloride] had an inhibition constant Ki of 19 µM. Besides, the IC50 in test [3] was 49 µM. On to `OO` [Formula H2O2, H2O2], for which the “stimulation of Nfa-1 enzyme activity” value in test [1] (NADH peroxidase activator, FIG. 9) was 9.7%. For `NC(=O)C1=CN([C@@H]2O[C@H](COP(=O)(O)OP(=O)(O)OC[C@H]3O[C@@H](n4cnc5c(N)ncnc54)[C@H](O)[C@@H]3O)[C@@H](O)[C@H]2O)C=CC1` [NADH], in test [4], the apparent kat came out at 4.4 s⁻¹ and the Km was 64.5 µM. Take `NC(=O)C1=CN([C@@H]2O[C@H](COP(=O)(O)OP(=O)(O)OC[C@H]3O[C@@H](n4cnc5c(N)ncnc54)[C@H](OP(=O)(O)O)[C@@H]3O)[C@@H](O)[C@H]2O)C=CC1` [NADPH]: in test [4], the apparent kat was 3.3 s⁻¹ and the Km is 22.3 µM. Take `O=c1[nH]cnc2nc[nH]c12` [hypoxanthine]: the affinity in test [1], expressed as Ki, was 1000 µM. In test [3], the IC50 was 497 µM. In turn, `O=C(O)c1cc[c]([Hg][OH])cc1` [pHMB, para-hydroxymercuribenzoate] gave a Ki in test [1] of 78 µM.

By Ki is commonly meant a measure of affinity in units of concentration, obtained from inhibition or displacement. For orientation: IC50 means the point on the concentration scale where inhibition reaches its midpoint. For orientation: Km means the substrate concentration at which the rate is half of its maximum.
